ChEMBL document CHEMBL5625190, “Novel fused imidazotriazines acting as promising top. II inhibitors and apoptotic inducers with greater selectivity against head and neck tumors: Design, synthesis, and biological assessments” (Eur J Med Chem, 2023)
Values after ≈ are worked out from the molar mass of the structure shown.

Legend:
HNO 97 cell line [1] = assay: Growth inhibition of human HNO 97 cell line assessed as reduction in cell viability at 100 ug/ml by SRB colorimetric assay relative to control; type: functional; settings: read-out: GI
MDA-MB-231 [2] = assay: Growth inhibition of human MDA-MB-231 cells assessed as reduction in cell viability at 100 ug/ml by SRB colorimetric assay relative to control; type: functional; settings: read-out: GI
HepG2 [3] = assay: Growth inhibition of human HepG2 cells assessed as reduction in cell viability at 100 ug/ml by SRB colorimetric assay relative to control; type: functional; settings: read-out: GI
Huh-7 = assay: Growth inhibition of human Huh-7 cells assessed as reduction in cell viability at 100 ug/ml by SRB colorimetric assay relative to control; type: functional; settings: read-out: GI
PC-3 = assay: Growth inhibition of human PC-3 cells assessed as reduction in cell viability at 100 ug/ml by SRB colorimetric assay relative to control; type: functional; settings: read-out: GI
A-375 = assay: Growth inhibition of human A-375 cells assessed as reduction in cell viability at 100 ug/ml by SRB colorimetric assay relative to control; type: functional; settings: read-out: GI
MCF7 = assay: Growth inhibition of human MCF7 cells assessed as reduction in cell viability at 100 ug/ml by SRB colorimetric assay relative to control; type: functional; settings: read-out: GI
HCT-116 = assay: Growth inhibition of human HCT-116 cells assessed as reduction in cell viability at 100 ug/ml by SRB colorimetric assay relative to control; type: functional; settings: read-out: GI
Caco-2 = assay: Growth inhibition of human Caco-2 cells assessed as reduction in cell viability at 100 ug/ml by SRB colorimetric assay relative to control; type: functional; settings: read-out: GI
MG-63 = assay: Growth inhibition of human MG-63 cells assessed as reduction in cell viability at 100 ug/ml by SRB colorimetric assay relative to control; type: functional; settings: read-out: GI
NCI-H460 = assay: Growth inhibition of human NCI-H460 cells assessed as reduction in cell viability at 100 ug/ml by SRB colorimetric assay relative to control; type: functional; settings: read-out: GI
A549 = assay: Growth inhibition of human A549 cells assessed as reduction in cell viability at 100 ug/ml by SRB colorimetric assay relative to control; type: functional; settings: read-out: GI
BT-474 = assay: Growth inhibition of human BT-474 cells assessed as reduction in cell viability at 100 ug/ml by SRB colorimetric assay relative to control; type: functional; settings: read-out: GI
[4] = Growth inhibition of human Oral epithelial cell assessed as reduction in cell viability at 100 ug/ml by SRB colorimetric assay relative to control; type: toxicity, cell-based; settings: oral epithelial cells, at 100 µg/mL, read-out: GI
[5] = target: DNA topoisomerase 2-beta (Homo sapiens) (UniProt Q02880); assay: Inhibition of human DNA topoisomerase 2-beta by ELISA method relative to control; settings: concentration not given here
Chain of DNA topoisomerase 2-beta (Homo sapiens) (Q02880 whole entry): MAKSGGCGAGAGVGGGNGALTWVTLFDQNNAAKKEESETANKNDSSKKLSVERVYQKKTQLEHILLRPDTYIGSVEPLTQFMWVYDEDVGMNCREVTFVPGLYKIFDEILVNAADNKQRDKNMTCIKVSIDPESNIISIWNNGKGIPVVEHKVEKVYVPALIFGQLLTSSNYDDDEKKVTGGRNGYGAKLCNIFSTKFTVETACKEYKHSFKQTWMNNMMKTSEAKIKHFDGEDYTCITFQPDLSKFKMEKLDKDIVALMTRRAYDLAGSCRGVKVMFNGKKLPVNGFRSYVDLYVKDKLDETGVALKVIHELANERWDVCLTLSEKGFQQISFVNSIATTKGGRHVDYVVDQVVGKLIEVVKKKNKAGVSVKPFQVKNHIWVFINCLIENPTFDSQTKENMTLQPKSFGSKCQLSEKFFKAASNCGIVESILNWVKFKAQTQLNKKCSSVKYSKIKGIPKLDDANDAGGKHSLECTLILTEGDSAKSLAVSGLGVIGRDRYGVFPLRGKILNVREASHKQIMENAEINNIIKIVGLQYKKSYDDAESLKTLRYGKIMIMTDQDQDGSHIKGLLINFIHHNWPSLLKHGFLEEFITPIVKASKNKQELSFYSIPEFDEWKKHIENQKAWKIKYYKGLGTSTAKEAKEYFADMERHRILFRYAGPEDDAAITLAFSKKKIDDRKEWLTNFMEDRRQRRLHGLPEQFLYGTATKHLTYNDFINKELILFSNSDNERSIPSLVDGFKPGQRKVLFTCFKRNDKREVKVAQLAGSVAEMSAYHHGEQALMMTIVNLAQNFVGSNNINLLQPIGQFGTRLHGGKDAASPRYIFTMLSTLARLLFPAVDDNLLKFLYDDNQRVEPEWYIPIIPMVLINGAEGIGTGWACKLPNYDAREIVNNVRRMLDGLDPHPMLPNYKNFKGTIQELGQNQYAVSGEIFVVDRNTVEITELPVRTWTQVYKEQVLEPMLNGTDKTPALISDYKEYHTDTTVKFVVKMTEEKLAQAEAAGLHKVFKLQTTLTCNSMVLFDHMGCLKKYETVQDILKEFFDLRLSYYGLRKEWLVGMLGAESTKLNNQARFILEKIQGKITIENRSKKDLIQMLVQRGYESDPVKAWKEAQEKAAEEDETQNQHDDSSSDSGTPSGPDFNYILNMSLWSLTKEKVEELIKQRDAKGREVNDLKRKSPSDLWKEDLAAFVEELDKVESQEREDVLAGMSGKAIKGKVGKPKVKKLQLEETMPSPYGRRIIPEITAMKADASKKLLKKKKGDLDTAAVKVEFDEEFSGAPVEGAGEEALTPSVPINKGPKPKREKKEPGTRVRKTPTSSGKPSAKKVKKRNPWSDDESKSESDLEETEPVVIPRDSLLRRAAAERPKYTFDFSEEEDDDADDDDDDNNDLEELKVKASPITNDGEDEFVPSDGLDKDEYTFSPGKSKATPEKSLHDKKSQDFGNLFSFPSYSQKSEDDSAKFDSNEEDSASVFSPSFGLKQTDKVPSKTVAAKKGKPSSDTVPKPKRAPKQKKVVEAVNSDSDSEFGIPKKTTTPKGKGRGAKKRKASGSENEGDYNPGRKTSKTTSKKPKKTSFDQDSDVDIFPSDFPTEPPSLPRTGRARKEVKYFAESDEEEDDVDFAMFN

HNO 97 cell line [6] = assay: Growth inhibition of human HNO 97 cell line assessed as reduction in cell viability by SRB colorimetric assay; type: functional, cell-based
MDA-MB-231 [7] = assay: Growth inhibition of human MDA-MB-231 cell line assessed as reduction in cell viability by SRB colorimetric assay; type: functional, cell-based
HepG2 [8] = assay: Growth inhibition of human HepG2 cell line assessed as reduction in cell viability by SRB colorimetric assay; type: functional, cell-based
HNO 97 cell line [9] = assay: Induction of cell cycle arrest in human HNO 97 cell line assessed as increase in cell level at S phase by flow cytometry analysis (reference value: 23.37%); type: functional
HNO 97 cell line [10] = assay: Induction of cell cycle arrest in human HNO 97 cell line assessed as increase in cell level at G2-M phase by flow cytometry analysis (reference value: 0.66%); type: functional
HNO 97 cell line [11] = assay: Induction of apoptosis in human HNO 97 cell line assessed as increase in early apoptotic cells by Annexin-V/PI staining based analysis (reference value: 0.23%); type: functional
HNO 97 cell line [12] = assay: Induction of apoptosis in human HNO 97 cell line assessed as increase in late apoptotic cells by Annexin-V/PI staining based analysis (reference value: 0.12%); type: functional
[13] = Upregulation of p53 expression in human HNO 97 cell line assessed as fold change by sandwich ELISA analysis; type: functional
[14] = Upregulation of BAX expression in human HNO 97 cell line assessed as fold change by sandwich ELISA analysis; type: functional
[15] = Downregulation of IL-6 expression in human HNO 97 cell line assessed as fold change by sandwich ELISA analysis; type: functional
[16] = Downregulation of BCL2 expression in human HNO 97 cell line assessed as fold change by sandwich ELISA analysis; type: functional
HNO 97 cell line [17] = assay: Antioxidant activity against human HNO 97 cell line assessed as increase in GSH level measured after 48 hrs by Ellmans method relative to control; type: functional
HNO 97 cell line [18] = assay: Antioxidant activity against human HNO 97 cell line assessed as MDA level measured after 48 hrs relative to control; type: functional
HNO 97 cell line [19] = assay: Antioxidant activity against human HNO 97 cell line assessed as NO level measured after 48 hrs relative to control; type: functional
[20] = target: T1, DNA topoisomerase 2-alpha (Homo sapiens, UniProt P11388); assay: Inhibition of human DNA topoisomerase 2alpha
T1 sequence (P11388 whole entry): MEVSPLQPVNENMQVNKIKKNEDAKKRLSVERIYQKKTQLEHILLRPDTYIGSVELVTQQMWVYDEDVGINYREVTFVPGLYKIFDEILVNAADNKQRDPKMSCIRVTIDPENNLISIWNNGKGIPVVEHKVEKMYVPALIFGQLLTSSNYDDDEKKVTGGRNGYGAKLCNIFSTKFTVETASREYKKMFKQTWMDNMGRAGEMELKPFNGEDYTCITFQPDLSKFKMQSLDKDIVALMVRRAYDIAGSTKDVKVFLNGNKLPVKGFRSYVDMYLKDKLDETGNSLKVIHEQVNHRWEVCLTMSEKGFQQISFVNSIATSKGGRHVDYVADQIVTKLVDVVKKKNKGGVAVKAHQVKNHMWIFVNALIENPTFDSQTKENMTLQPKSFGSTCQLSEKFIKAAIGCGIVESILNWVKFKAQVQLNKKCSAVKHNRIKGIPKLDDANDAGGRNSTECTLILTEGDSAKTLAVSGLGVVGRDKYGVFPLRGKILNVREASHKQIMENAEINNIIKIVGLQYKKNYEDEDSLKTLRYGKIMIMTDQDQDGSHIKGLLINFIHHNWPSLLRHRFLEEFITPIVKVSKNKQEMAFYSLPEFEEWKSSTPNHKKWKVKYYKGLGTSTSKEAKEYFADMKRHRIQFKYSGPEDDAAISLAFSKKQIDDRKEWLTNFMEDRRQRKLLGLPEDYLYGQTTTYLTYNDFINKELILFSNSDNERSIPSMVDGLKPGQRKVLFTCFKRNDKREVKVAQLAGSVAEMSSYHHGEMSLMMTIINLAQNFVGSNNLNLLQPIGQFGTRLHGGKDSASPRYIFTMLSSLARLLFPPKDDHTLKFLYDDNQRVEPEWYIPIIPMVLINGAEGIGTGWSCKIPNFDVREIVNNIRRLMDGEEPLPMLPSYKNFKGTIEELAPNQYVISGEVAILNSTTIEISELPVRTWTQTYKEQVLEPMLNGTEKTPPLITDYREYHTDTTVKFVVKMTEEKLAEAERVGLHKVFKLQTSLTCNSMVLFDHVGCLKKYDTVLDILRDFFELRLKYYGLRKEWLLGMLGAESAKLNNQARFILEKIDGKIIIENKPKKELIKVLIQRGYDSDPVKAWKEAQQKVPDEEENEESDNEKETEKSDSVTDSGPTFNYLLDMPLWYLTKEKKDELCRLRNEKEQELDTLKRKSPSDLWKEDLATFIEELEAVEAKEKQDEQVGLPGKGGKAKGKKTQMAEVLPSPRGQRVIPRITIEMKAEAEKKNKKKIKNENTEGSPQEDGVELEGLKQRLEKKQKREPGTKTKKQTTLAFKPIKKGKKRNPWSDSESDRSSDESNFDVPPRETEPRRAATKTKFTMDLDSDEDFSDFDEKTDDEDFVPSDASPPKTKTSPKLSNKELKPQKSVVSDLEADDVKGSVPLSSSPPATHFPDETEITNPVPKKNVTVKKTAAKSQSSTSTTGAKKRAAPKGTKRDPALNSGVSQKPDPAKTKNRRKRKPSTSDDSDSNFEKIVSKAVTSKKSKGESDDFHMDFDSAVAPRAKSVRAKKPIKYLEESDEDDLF

HL-60 = assay: Antiproliferative activity against human HL-60 cells; type: functional, cell-based
[21] = target: T1, DNA topoisomerase 2-alpha; assay: Inhibition of human DNA topoisomerase 2alpha using supercoiled pHot1 DNA as substrate incubated for 30 mins
Calf thymus DNA = assay: Displacement of methyl green from calf thymus DNA assessed as DNA intercalation measured after 24 hrs; type: nucleic-acid assay, Bos taurus

| Compound | inhibition of growth at 100 µg/mL (HNO 97 cell line [1]) [%] | inhibition of growth at 100 µg/mL (MDA-MB-231 [2]) [%] | inhibition of growth at 100 µg/mL (HepG2 [3]) [%] | inhibition of growth at 100 µg/mL (Huh-7) [%] | inhibition of growth at 100 µg/mL (PC-3) [%] | inhibition of growth at 100 µg/mL (A-375) [%] | inhibition of growth at 100 µg/mL (MCF7) [%] | inhibition of growth at 100 µg/mL (HCT-116) [%] | inhibition of growth at 100 µg/mL (Caco-2) [%] | inhibition of growth at 100 µg/mL (MG-63) [%] | inhibition of growth at 100 µg/mL (NCI-H460) [%] | inhibition of growth at 100 µg/mL (A549) [%] | inhibition of growth at 100 µg/mL (BT-474) [%] | inhibition at 100 ug/ml [4] [%] | inhibition [5] [%] | IC50 (HNO 97 cell line [6]) [µg/mL] | IC50 (MDA-MB-231 [7]) [µg/mL] | IC50 (HepG2 [8]) [µg/mL] | other results |
| --- | --- | --- | --- | --- | --- | --- | --- | --- | --- | --- | --- | --- | --- | --- | --- | --- | --- | --- | --- |
| CC(C)c1ccc(C2N=C(N)Nc3nc4ccccc4n32)cc1 (centres undefined) | 75.7 | 78.6 | 63.7 | 54.7 | 71.7 | 58.1 | 55.4 | 55.6 | 59.2 | 58 | 65.6 | 49 | 61.7 | 7.69 | 77.5 |  |  |  |  |
| COc1cccc2c1C(=O)c1c(O)c3c(c(O)c1C2=O)C[C@@](O)(C(=O)CO)C[C@@H]3O[C@H]1C[C@H](N)[C@H](O)[C@H](C)O1 [DOXORUBICIN] | 80.3 | 78.2 | 59.3 | 74.8 | 68 | 64.1 | 69 | 71.3 | 80.8 | 69.9 | 73.6 | 49 | 44.7 | 70.4 | 86.4 | 9 (≈ 16.6 µM) | 8.6 (≈ 15.8 µM) | 4.6 (≈ 8.46 µM) |  |
| NC1=Nc2nc3ccccc3n2C(c2ccc(Cl)cc2Cl)N1 (centres undefined) | 82.6 | 71.5 | 76.5 | 73.6 | 74.3 | 67.2 | 72.6 | 51.8 | 63.4 | 66.7 | 71.8 | 69 | 52.4 | 62.8 | 87.9 | 4 (≈ 12 µM) | 10 (≈ 30.1 µM) | 9 (≈ 27.1 µM) | Activity (HNO 97 cell line [9]): 46.4%; Activity (HNO 97 cell line [10]): 27.94%; Activity (HNO 97 cell line [11]): 4.99%; Activity (HNO 97 cell line [12]): 1.42%; fold change (FC) [13]: 2.32; fold change (FC) [14]: 2.46; fold change (FC) [15]: 0.64; fold change (FC) [16]: 0.15; Activity (HNO 97 cell line [17]): 177.01%; Activity (HNO 97 cell line [18]): 46.33%; Activity (HNO 97 cell line [19]): 56.5% |
| O=C(N/N=C/c1ccncc1)c1cccc2c(=O)c3ccccc3[nH]c12 |  |  |  |  |  |  |  |  |  |  |  |  |  |  |  |  |  |  | IC50 [20]: 2.26 µM; IC50 (HL-60): 0.48 µM |
| CCCc1nnc2c3ccccc3c(N/N=C/c3ccc([N+](=O)[O-])cc3)nn12 |  |  |  |  |  |  |  |  |  |  |  |  |  |  |  |  |  |  | IC50 [21]: 7.02 µM; IC50 (Calf thymus DNA): 26.2 µM |
| NC1=Nc2nc3ccccc3n2C(c2ccc(Cl)c(Cl)c2)N1 (centres undefined) | 78 | 75 | 63.6 | 72.5 | 75.5 | 63 | 62 | 51.1 | 50.7 | 66.4 | 73.4 | 67.5 | 57.7 | 41.6 | 81.7 | 3 (≈ 9.03 µM) | 4 (≈ 12 µM) | 4.8 (≈ 14.4 µM) | Activity (HNO 97 cell line [9]): 58.07%; Activity (HNO 97 cell line [10]): 4.99%; Activity (HNO 97 cell line [11]): 9.27%; Activity (HNO 97 cell line [12]): 0.9%; fold change (FC) [13]: 2.16; fold change (FC) [14]: 2.39; fold change (FC) [15]: 0.67; fold change (FC) [16]: 0.24; Activity (HNO 97 cell line [17]): 189.32%; Activity (HNO 97 cell line [18]): 51.93%; Activity (HNO 97 cell line [19]): 62.06% |
| O=C(NNC(=O)c1ccc(Nc2nc3ccccc3n3cnnc23)cc1)NC1CCCCC1 |  |  |  |  |  |  |  |  |  |  |  |  |  |  |  |  |  |  | IC50 (Calf thymus DNA): 25.3 µM |
| COc1ccc(OC)c(C2N=C(N)Nc3nc4ccccc4n32)c1 (centres undefined) | 76.6 | 64.9 | 63.6 | 54.8 | 46 | 52.1 | 54.4 | 49.3 | 52.5 | 46.8 | 63.2 | 54.9 | 46.3 | 10.2 |  |  |  |  |  |
| COc1cc(C2NC(N)=Nc3nc4ccccc4n32)cc(OC)c1OC (centres undefined) | 82.2 | 79.4 | 73.9 | 70.1 | 60 | 61.8 | 72 | 63.6 | 69 | 59.4 | 69.6 | 67.5 | 69.9 | 32.7 |  |  |  |  |  |
